What was measured:
rat beta cells [1] = assay: Number of living beta cells in culture (Hoechst 33342/propidium iodide whole-well imaging counts; expansion assay); assay type: cell-based
Experimental: (§1) Beta cells were FACS-purified from islet-cell enriched suspensions (Pipeleers et al., 1985) prepared from neonatal (2-3 days-old) and adolescent or adult (8 or 40-week-old, male) Wistar rats (Janvier Bioservices, France); their purity was, respectively 70-75% and over 90%. Sorted cells were counted in a hemocytometer, seeded (day 0) and cultured for up to 15 days in serum-free Ham's-F10 medium at 5, 10 or 20 mmol/l glucose, supplemented with 2 mmol/l L-glutamine, 50 μM 3-isobutyl-1-methylxanthine, 0.5% Albumax-I, penicillin (100 U/ml) and streptomycin (0.1 mg/ml). The 10 mmol/l glucose condition is known to maintain beta cell survival over 9-days (Ling et al., 1994; Ling and Pipeleers, 1994). Medium and cells were retrieved after selected culture periods and assayed for insulin content; data were expressed as a function of the number of living beta cells that was determined in parallel wells.
(§2) On day 1, 9 and 15 of culture, total numbers of living beta cells per well were determined by semi-automatic cell count, after Hoechst 33342 (Ho) and propidium iodide (PI) staining. Numbers of living beta cells were obtained by subtracting the PI-positive cell numbers from the Ho-positive cell numbers, and correcting for the percent insulin-negative cells, as determined following insulin-immunofluorescence staining. They were expressed as percent of the numbers on day 1. Each condition was also evaluated for increases in the percentage of proliferating beta cells (incorporating the thymidine-analogue 5-ethynyl-2′-deoxyuridine, EdU; 100 μmol/l). To detect beta cells that underwent two successive cycles, cells were sequentially exposed to two different thymidine-analogs, first EdU from day 3 to 6, and then BrdU (100 μmol/l) from day 7 to 10, with a 24-hour label-free period in between. EdU-positive (EdU^+) nuclei were detected with the Click-iT Assay kit (Invitrogen), while BrdU-positive (BrdU^+) nuclei were identified with anti-BrdU antibody.
(§3) Absolute number of cells was determined by whole-well imaging using the BD-PathwayBioimager855 (BD-Biosciences). IPLab and AttoVision software packages (BD-Biosciences) were used for image background subtraction, segmentation and quantification.
Experimental procedures for isolation of beta cells from neonatal (2-3 days old) and adult (8 or 40 week old, male) Wistar rats (Janvier Bioservices, France) and analysis of their number, viability and proliferation activity in culture have been described before (Assefa et al., 2014). Sorted beta cells were seeded in 804G matrix-coated plates (designated as day 0) and the numbers and viability of seeded cells at the start of all experiments were determined on day 1 (24 h after seeding). The cells were cultured in control medium, which is a serum-free Ham's F10 medium supplemented with 2 mM L-glutamine, 50 μM 3-isobutyl-1-methylxanthine, 0.5% Albumax I, penicillin (100 U/ml), streptomycin (0.1 mg/ml) and, unless indicated otherwise, 10 mM glucose.
(§4) Sorted beta cells were seeded in 384-well or 6-well plates coated with 804G matrix, and kept in culture for up to 15 days at 37° C. 5% CO2 using Ham F10 supplemented with 1 mM L-glutamine, 0.1 mg/ml streptomycin, 0.075 mg/ml penicillin, 50 μM of isobutyl-1-methylxanthine (IBMX) at 10 mM D-glucose with and without synthetic GCs (6 methyl-prednisolone (6MP), dexamethasone (DEX), GR-modulators (compound A (CPA), mifepristone (MIF), and NFκB inhibitors (JSH-23 en Bay11-7085). Total cell number and beta cell viability was evaluated after incubation with Hoechst 33342 and propidium iodide. All chemicals were from Sigma Life Sciences or Merck. Quantification of cell numbers and analysis of beta-cell viability was done using the Pathway Bioimager (BD Biosciences) and using IPlab and Attovision software for background subtraction as described prior (Assefa et al., 2014).

rat beta cells [2] = assay: Beta cell DNA synthesis/proliferation by EdU (and BrdU) incorporation, incl. LOPAC screen; assay type: cell-based; conditions: for Percent EdU+ cells / Z-Score: LOPAC screen at 1 μM, adult rat beta cells, EdU day 3 to 6; for Percent EdU+ cells: control medium 5.6; for Z-Score: hit cut-off three standard deviations
Experimental: as §2
Freshly purified beta cells were cultured in control medium for 24 h prior to the addition of the LOPAC test compounds (day 1). The culture medium was refreshed on day 3 and the cells were then cultured further with 5-ethynyl-2′-deoxyuridine (EdU; 10 μM) up to day 6. Cell viability and percentage EdU incorporation were quantified after imaging and image analysis using the BD Pathway Bioimager, as described before (Assefa et al., 2014). To test the significance of compound effect on beta cell proliferation, average Z-score for each compound was calculated and a cut-off for potential positive hits was set at a Z-score of greater than three standard deviations. Thus, a compound is considered a hit only if it increases the percent EdU incorporation to above three standard deviation of the plate-averaged percent EdU incorporation.
as §4, with “2014). Replicating beta cells were quantified after 24 or 72 hrs incubation with 5-ethynyl-2′-deoxyuridine (EdU, a thymidine analog) using the ClickIT EDU Alexa Fluor assay (Invitrogen). EdU-positive cells were expressed as percentage of total cell number.” for “2014).”

rat beta cells [3] = assay: Cellular insulin content, insulin release and glucose-stimulated insulin secretion of cultured beta cells; assay type: cell-based
Experimental: as §1

[4] = tested on: GR trans-repression and trans-activation targets, cell cycle genes and beta cell phenotype markers; assay: Q-PCR of mRNA levels in cultured beta cells; assay type: cell-based, rat; conditions: 9 days culture; 1 μM 6MP, 1 μM MIF, 0.5 μM CPA; vehicle = 1.0
rat beta cells [5] = assay: Beta cell viability / cell death (propidium iodide assay); assay type: cell-based; conditions: for Percent viable cells: LOPAC screen at 1 μM, adult rat beta cells, day 6, control medium 97
Description: as §2, with “Numbers” for “On day 1, 9 and 15 of culture, total numbers of living beta cells per well were determined by semi-automatic cell count, after Hoechst 33342 (Ho) and propidium iodide (PI) staining. Numbers”, “Each condition was also evaluated for increases in the percentage of proliferating beta cells (incorporating the thymidine-analogue 5-ethynyl-2′-deoxyuridine, EdU; 100 μmol/l).” left out
as §3
Freshly purified beta cells were cultured in control medium for 24 h prior to the addition of the LOPAC test compounds (day 1). The culture medium was refreshed on day 3 and the cells were then cultured further with 5-ethynyl-2′-deoxyuridine (EdU; 10 μM) up to day 6. […] Thus, a compound is considered a hit only if it increases the percent EdU incorporation to above three standard deviation of the plate-averaged percent EdU incorporation.

C[C@H]1C[C@@H]2[C@H]([C@@H](O)C[C@@]3(C)[C@H]2CC[C@]3(O)C(=O)CO)[C@@]2(C)C=CC(=O)C=C12 [6MP, 6-methylprednisolone]
cells after 15-day culture compared to day 1 numbers (rat beta cells [1]; 10 mM glucose and MP): 152±5%
change of beta cell numbers between day 1 and 15 (rat beta cells [1]; 6MP 1 μM, DEX 0.01 μM, CPA 0.5 μM): nearly double
increase in absolute number of living beta cells in culture (rat beta cells [1]; two-weeks culture): near population doubling
final concentration of optimal potency (dose-response studies) (rat beta cells [2]; survival and proliferation of rat beta cells, data not shown): 1 µM
Insulin Release during last 72 h of culture (rat beta cells [3]; 9 days, 6MP followed by 6 days, basal): 1.6 ± 1 ng/10^3 cells/h
glucose-induced insulin secretion, Day 15 (rat beta cells [3]; 9 days, 6MP followed by 6 days, basal, 2.5 mM glucose): 24.4 ± 3.3 % of content/h
glucose-induced insulin secretion, Day 15 (rat beta cells [3]; 9 days, 6MP followed by 6 days, basal, 5 mM glucose): 34.3 ± 3.9 % of content/h
glucose-induced insulin secretion, Day 15 (rat beta cells [3]; 9 days, 6MP followed by 6 days, basal, 10 mM glucose): 46.8 ± 7.7 % of content/h
glucose-induced insulin secretion, Day 15 (rat beta cells [3]; 9 days, 6MP followed by 6 days, basal, 20 mM glucose): 52.1 ± 1.8 % of content/h
Insulin Release during last 72 h of culture (rat beta cells [3]; 15 days, 6MP): 0.9 ± 0.1 ng/10^3 cells/h
glucose-induced insulin secretion, Day 15 (rat beta cells [3]; 15 days, 6MP, 2.5 mM glucose): 35.3 ± 7.4 % of content/h
glucose-induced insulin secretion, Day 15 (rat beta cells [3]; 15 days, 6MP, 5 mM glucose): 37.7 ± 4.0 % of content/h
glucose-induced insulin secretion, Day 15 (rat beta cells [3]; 15 days, 6MP, 10 mM glucose): 43.2 ± 6.8 % of content/h
glucose-induced insulin secretion, Day 15 (rat beta cells [3]; 15 days, 6MP, 20 mM glucose): 44.0 ± 4.8 % of content/h
CDK4 mRNA level (ΔΔCt values relative to basal vehicle control) [4]: 1.7 ± 0.2^2
CXCL11 mRNA level (ΔΔCt values relative to basal vehicle control) [4]: 0.1 ± 0.0^3
Cyclin B1 mRNA level (ΔΔCt values relative to basal vehicle control) [4]: 4.7 ± 0.7^3
Cyclin B2 mRNA level (ΔΔCt values relative to basal vehicle control) [4]: 4.8 ± 0.8^3
Cyclin E1 mRNA level (ΔΔCt values relative to basal vehicle control) [4]: 2.3 ± 0.3^3
CyclinD1 mRNA level (ΔΔCt values relative to basal vehicle control) [4]: 0.8 ± 0.1^
DLK1 mRNA level (ΔΔCt values relative to basal vehicle control) [4]: 24491 ± 5157^3
FKBP4 mRNA level (ΔΔCt values relative to basal vehicle control) [4]: 1.2 ± 0.1^
FKBP5 mRNA level (ΔΔCt values relative to basal vehicle control) [4]: 15.4 ± 2.2^3
GDF11 mRNA level (ΔΔCt values relative to basal vehicle control) [4]: 3.8 ± 1.0^3
ICAM1 mRNA level (ΔΔCt values relative to basal vehicle control) [4]: 0.1 ± 0.1^3
MKP1 mRNA level (ΔΔCt values relative to basal vehicle control) [4]: 20.7 ± 4.2^3
MafA mRNA level (ΔΔCt values relative to basal vehicle control) [4]: 0.2 ± 0.1^3
MafB mRNA level (ΔΔCt values relative to basal vehicle control) [4]: 5.1 ± 0.9^3
NNAT mRNA level (ΔΔCt values relative to basal vehicle control) [4]: 7.4 ± 1.8^3
NPY mRNA level (ΔΔCt values relative to basal vehicle control) [4]: 3.8 ± 0.6^3
NR3C1 mRNA level (ΔΔCt values relative to basal vehicle control) [4]: 1.0 ± 0.1^
Pdx1 mRNA level (ΔΔCt values relative to basal vehicle control) [4]: 0.5 ± 0.2^3
TRH mRNA level (ΔΔCt values relative to basal vehicle control) [4]: 5.3 ± 0.5^3

C[C@H]1C[C@H]2[C@@H]3CCC4=CC(=O)C=C[C@]4(C)[C@@]3(Cl)[C@@H](O)C[C@]2(C)[C@@]1(O)C(=O)CO [Beclomethasone]
Percent EdU+ cells (rat beta cells [2]): 20.6%
Z-Score (rat beta cells [2]): 5.9
Percent viable cells (rat beta cells [5]): 96%

C[C@H]1C[C@H]2[C@@H]3CCC4=CC(=O)C=C[C@]4(C)[C@@]3(F)[C@@H](O)C[C@]2(C)[C@@]1(O)C(=O)CO [Betamethasone]
Percent EdU+ cells (rat beta cells [2]): 21.1%
Z-Score (rat beta cells [2]): 5.5
Percent viable cells (rat beta cells [5]): 95%

CCCC1O[C@@H]2C[C@H]3[C@@H]4CCC5=CC(=O)C=C[C@]5(C)[C@H]4[C@@H](O)C[C@]3(C)[C@]2(C(=O)CO)O1 (stereo partly shown) [Budesonide]
Percent EdU+ cells (rat beta cells [2]): 24.9%
Z-Score (rat beta cells [2]): 4.1
Percent viable cells (rat beta cells [5]): 97%

C[C@]12CCC(=O)C=C1CC[C@@H]1[C@@H]2CC[C@@]2(C)[C@H]1CC[C@]2(O)C(=O)CO [Cortexolone]
Percent EdU+ cells (rat beta cells [2]): 13.1%
Z-Score (rat beta cells [2]): 4.1
Percent viable cells (rat beta cells [5]): 97%

CS(=O)(=O)c1ccc([C@@H](CC2CCCC2)C(=O)Nc2nccs2)cc1 [GKA, RO-28-1675]
effect of 15-day continuous treatment on beta cell survival (rat beta cells [5]; 10 mM glucose, irrespective of MP, data not shown): induces cytotoxicity and a net cell loss
marked cytotoxicity at day 15 (rat beta cells [5]; GKA 3 μm, beta cells from 8- and 40-week old rats, 5 mmol/l glucose, data not shown): not observed
dead cells at day 15 (cytotoxicity) (rat beta cells [5]; GKA 3 μm, neonatal beta cells, 5 mmol/l glucose): > 50%

C[C@@H]1C[C@@H]([C@H](O)CC2CC(=O)NC(=O)C2)C(=O)[C@@H](C)C1 [cycloheximide]
number of dead cells (induction of apoptosis) (rat beta cells [5]; within 48 h, purified rat beta cells): dose-dependent increase in the number of dead cells

Source: patent US20160274087A1, “SCREENING ASSAY FOR AGENTS THAT INFLUENCE BETA CELL NUMBER AND/OR PHENOTYPE” (VRIJE UNIVERSITEIT BRUSSEL, priority 2013, published 2016)
